Measurements published in US8916702B2 (priority 2012, dated 2014).

Test system: HCV pseudoparticles (genotype 1a HCV E1 and E2 envelope, H77C isolate)
Assay: microbe, parasite or virus in culture
Format: cell-based
Settings: Hepatitis C virus, Huh-7, 48 h, HCV pseudoparticles, Huh7 cells, luciferase 2 days after infection; average of duplicates

Row | Compound | EC50
1 | CN(C)CCOc1ccc(NC(=O)C(=O)NCC[C@H](NC(=O)c2ccc(Nc3nc(NC4(c5ccc(Cl)cc5)CC4)nc(OCC(F)(F)F)n3)cc2)C(=O)O)cn1 [Compound 3660] | 1.67 nM
2 | Cc1ccc(NC(=O)C(=O)NCC(C)(C)CNC(=O)c2ccc(Nc3nc(NC4(c5ccc(Cl)cc5)CC4)nc(OCC(F)(F)F)n3)cc2F)c(Cl)c1 [Compound 3664] | 0.038 nM
3 | Cc1nnc(-c2ccc(NC(=O)C(=O)NCC(C)(C)CNC(=O)c3ccc(Nc4nc(NC5(c6ccc(Cl)cc6)CC5)nc(OCC(F)(F)F)n4)cc3)cc2)[nH]1 [Compound 3674] | 0.15 nM
4 | COC(=O)[C@H](CNC(=O)C(=O)Nc1ccc(OCCN2C(=O)c3ccccc3C2=O)nc1)NC(=O)c1ccc(Nc2nc(NC3(c4ccc(Cl)cc4)CC3)nc(OCC(F)(F)F)n2)cc1 [Compound 3682] | 0.31 nM
5 | CCc1cccc(NC(=O)C(=O)NC[C@H](NC(=O)c2ccc(Nc3nc(NC4(c5ccc(Cl)cc5)CC4)nc(OCC(F)(F)F)n3)cc2)C(=O)OC)c1 [Compound 3688] | 0.97 nM
6 | COC(=O)[C@H](CNC(=O)C(=O)Nc1cccc(Oc2ccccc2)c1)NC(=O)c1ccc(Nc2nc(NC3(c4ccc(Cl)cc4)CC3)nc(OCC(F)(F)F)n2)cc1 [Compound 3694] | 2.23 nM
7 | COC(=O)[C@H](CNC(=O)C(=O)Nc1ccc(N2CCOCC2)nc1)NC(=O)c1ccc(Nc2nc(NC3(c4ccc(Cl)cc4)CC3)nc(OCC(F)(F)F)n2)cc1 [Compound 3703] | 1.33 nM

Same assay, conditions: Hepatitis C virus, Huh-7, 48 h, read-out: Activity (EC50 class), HCV pseudoparticles, Huh7 cells, luciferase 2 days after infection; average of duplicates

Row | Compound | EC50
8 | CCCNc1ccc(NC(=O)C(=O)NCC[C@H](NC(=O)c2ccc(Nc3nc(NC4(c5ccc(Cl)cc5)CC4)nc(OCC(F)(F)F)n3)cc2)C(=O)O)cn1 [Compound 3657] | 0.01 to 10 nM
9 | CCN(CC)CCOc1cccc(NC(=O)C(=O)NCC[C@H](NC(=O)c2ccc(Nc3nc(NC4(c5ccc(Cl)cc5)CC4)nc(OCC(F)(F)F)n3)cc2)C(=O)O)c1 [Compound 3658] | 0.01 to 10 nM
10 | O=C(NCC[C@H](NC(=O)c1ccc(Nc2nc(NC3(c4ccc(Cl)cc4)CC3)nc(OCC(F)(F)F)n2)cc1)C(=O)O)C(=O)Nc1cccc(-n2ccnc2)c1 [Compound 3659] | 0.01 to 10 nM
11 | CN(C)CCOc1ccc(NC(=O)C(=O)NCC[C@H](NC(=O)c2ccc(Nc3nc(NC4(c5ccc(Cl)cc5)CC4)nc(OCC(F)(F)F)n3)cc2)C(=O)O)cn1 [Compound 3660] | 0.01 to 10 nM
12 | O=C(NCC[C@H](NC(=O)c1ccc(Nc2nc(NC3(c4ccc(Cl)cc4)CC3)nc(OCC(F)(F)F)n2)cc1)C(=O)O)C(=O)Nc1ccc(OCCN2CCCCC2)nc1 [Compound 3661] | 0.01 to 10 nM
13 | O=C(NCC[C@H](NC(=O)c1ccc(Nc2nc(NC3(c4ccc(Cl)cc4)CC3)nc(OCC(F)(F)F)n2)cc1)C(=O)O)C(=O)Nc1cccc(Oc2cccnc2)c1 [Compound 3662] | 0.01 to 10 nM
14 | NC(=O)CCc1cccc(NC(=O)C(=O)NCC[C@H](NC(=O)c2ccc(Nc3nc(NC4(c5ccc(Cl)cc5)CC4)nc(OCC(F)(F)F)n3)cc2)C(=O)O)c1 [Compound 3663] | 0.01 to 10 nM
15 | Cc1ccc(NC(=O)C(=O)NCC(C)(C)CNC(=O)c2ccc(Nc3nc(NC4(c5ccc(Cl)cc5)CC4)nc(OCC(F)(F)F)n3)cc2F)c(Cl)c1 [Compound 3664] | 0.01 to 10 nM
16 | COc1cc2nc(NC(=O)C(=O)NCC(C)(C)CNC(=O)c3ccc(Nc4nc(NC5(c6ccc(Cl)cc6)CC5)nc(OCC(F)(F)F)n4)cc3)sc2cc1OC [Compound 3665] | 0.01 to 10 nM
17 | CC(C)(CNC(=O)C(=O)Nc1ccc2sccc2c1)CNC(=O)c1ccc(Nc2nc(NC3(c4ccc(Cl)cc4)CC3)nc(OCC(F)(F)F)n2)cc1 [Compound 3666] | 0.01 to 10 nM
18 | CC(C)(CNC(=O)C(=O)Nc1cccc(Oc2ccccc2)c1)CNC(=O)c1ccc(Nc2nc(NC3(c4ccc(Cl)cc4)CC3)nc(OCC(F)(F)F)n2)cc1 [Compound 3667] | 0.01 to 10 nM
19 | CC(=O)c1cccc(NC(=O)C(=O)NCC(C)(C)CNC(=O)c2ccc(Nc3nc(NC4(c5ccc(Cl)cc5)CC4)nc(OCC(F)(F)F)n3)cc2)c1 [Compound 3668] | 0.01 to 10 nM
20 | CC(C)(CNC(=O)C(=O)Nc1cccc(C(=O)Nc2ccccc2)c1)CNC(=O)c1ccc(Nc2nc(NC3(c4ccc(Cl)cc4)CC3)nc(OCC(F)(F)F)n2)cc1 [Compound 3669] | 0.01 to 10 nM
21 | C=Cc1cccc(NC(=O)C(=O)NCC(C)(C)CNC(=O)c2ccc(Nc3nc(NC4(c5ccc(Cl)cc5)CC4)nc(OCC(F)(F)F)n3)cc2)c1 [Compound 3670] | 0.01 to 10 nM
22 | CC(C)(CNC(=O)C(=O)Nc1ccc(CNC(N)=O)cc1)CNC(=O)c1ccc(Nc2nc(NC3(c4ccc(Cl)cc4)CC3)nc(OCC(F)(F)F)n2)cc1 [Compound 3671] | 0.01 to 10 nM
23 | CC(C)(CNC(=O)C(=O)Nc1ccc(Oc2ccccc2)cc1)CNC(=O)c1ccc(Nc2nc(NC3(c4ccc(Cl)cc4)CC3)nc(OCC(F)(F)F)n2)cc1 [Compound 3672] | 0.01 to 10 nM
24 | Cc1cc(NC(=O)C(=O)NCC(C)(C)CNC(=O)c2ccc(Nc3nc(NC4(c5ccc(Cl)cc5)CC4)nc(OCC(F)(F)F)n3)cc2)[nH]n1 [Compound 3673] | 0.01 to 10 nM
25 | Cc1nnc(-c2ccc(NC(=O)C(=O)NCC(C)(C)CNC(=O)c3ccc(Nc4nc(NC5(c6ccc(Cl)cc6)CC5)nc(OCC(F)(F)F)n4)cc3)cc2)[nH]1 [Compound 3674] | 0.01 to 10 nM
26 | CC(C)(CNC(=O)C(=O)Nc1nc2ccc(O)cc2s1)CNC(=O)c1ccc(Nc2nc(NC3(c4ccc(Cl)cc4)CC3)nc(OCC(F)(F)F)n2)cc1F [Compound 3676] | 0.01 to 10 nM
27 | COc1cc2nc(NC(=O)C(=O)NCC(C)(C)CNC(=O)c3ccc(Nc4nc(NC5(c6ccc(Cl)cc6)CC5)nc(OCC(F)(F)F)n4)cc3F)sc2cc1OC [Compound 3677] | 0.01 to 10 nM
28 | CC(C)(CNC(=O)C(=O)Nc1nc2ccc(S(N)(=O)=O)cc2s1)CNC(=O)c1ccc(Nc2nc(NC3(c4ccc(Cl)cc4)CC3)nc(OCC(F)(F)F)n2)cc1F [Compound 3678] | 0.01 to 10 nM
29 | COc1cc(NC(=O)C(=O)NCC(C)(C)CNC(=O)c2ccc(Nc3nc(NC4(c5ccc(Cl)cc5)CC4)nc(OCC(F)(F)F)n3)cc2)ccc1-c1ccccc1 [Compound 3679] | 0.01 to 10 nM
30 | COc1cc2sc(NC(=O)C(=O)NCC(C)(C)CNC(=O)c3ccc(Nc4nc(NC5(c6ccc(Cl)cc6)CC5)nc(OCC(F)(F)F)n4)cc3F)nc2cc1Cl [Compound 3680] | 0.01 to 10 nM
31 | CC(C)(CNC(=O)C(=O)Nc1nc2c(Cl)ccc(Cl)c2s1)CNC(=O)c1ccc(Nc2nc(NC3(c4ccc(Cl)cc4)CC3)nc(OCC(F)(F)F)n2)cc1F [Compound 3681] | 0.01 to 10 nM

Row | Compound | EC50
32 | COC(=O)[C@H](CNC(=O)C(=O)Nc1ccc(OCCN2C(=O)c3ccccc3C2=O)nc1)NC(=O)c1ccc(Nc2nc(NC3(c4ccc(Cl)cc4)CC3)nc(OCC(F)(F)F)n2)cc1 [Compound 3682] | 0.01 to 10 nM
33 | COC(=O)[C@H](CNC(=O)C(=O)Nc1ccc(Cl)nc1)NC(=O)c1ccc(Nc2nc(NC3(c4ccc(Cl)cc4)CC3)nc(OCC(F)(F)F)n2)cc1 [Compound 3683] | 0.01 to 10 nM
34 | COC(=O)[C@H](CNC(=O)C(=O)Nc1cccc(Cl)c1)NC(=O)c1ccc(Nc2nc(NC3(c4ccc(Cl)cc4)CC3)nc(OCC(F)(F)F)n2)cc1 [Compound 3685] | 0.01 to 10 nM
35 | COC(=O)[C@H](CNC(=O)C(=O)Nc1cccc(OCc2ccccc2)c1)NC(=O)c1ccc(Nc2nc(NC3(c4ccc(Cl)cc4)CC3)nc(OCC(F)(F)F)n2)cc1 [Compound 3686] | 0.01 to 10 nM
36 | COC(=O)[C@H](CNC(=O)C(=O)Nc1cccc(C)c1)NC(=O)c1ccc(Nc2nc(NC3(c4ccc(Cl)cc4)CC3)nc(OCC(F)(F)F)n2)cc1 [Compound 3687] | 0.01 to 10 nM
37 | CCc1cccc(NC(=O)C(=O)NC[C@H](NC(=O)c2ccc(Nc3nc(NC4(c5ccc(Cl)cc5)CC4)nc(OCC(F)(F)F)n3)cc2)C(=O)OC)c1 [Compound 3688] | 0.01 to 10 nM
38 | COC(=O)[C@H](CNC(=O)C(=O)Nc1cccc(C(N)=O)c1)NC(=O)c1ccc(Nc2nc(NC3(c4ccc(Cl)cc4)CC3)nc(OCC(F)(F)F)n2)cc1 [Compound 3689] | 0.01 to 10 nM
39 | C=Cc1cccc(NC(=O)C(=O)NC[C@H](NC(=O)c2ccc(Nc3nc(NC4(c5ccc(Cl)cc5)CC4)nc(OCC(F)(F)F)n3)cc2)C(=O)OC)c1 [Compound 3690] | 0.01 to 10 nM
40 | COC(=O)[C@H](CNC(=O)C(=O)Nc1cccc(C(=O)Nc2ccccc2)c1)NC(=O)c1ccc(Nc2nc(NC3(c4ccc(Cl)cc4)CC3)nc(OCC(F)(F)F)n2)cc1 [Compound 3691] | 0.01 to 10 nM
41 | COC(=O)[C@H](CNC(=O)C(=O)Nc1cccc(C(=O)c2ccccc2)c1)NC(=O)c1ccc(Nc2nc(NC3(c4ccc(Cl)cc4)CC3)nc(OCC(F)(F)F)n2)cc1 [Compound 3692] | 0.01 to 10 nM
42 | COC(=O)[C@H](CNC(=O)C(=O)Nc1cccc(OC(F)(F)F)c1)NC(=O)c1ccc(Nc2nc(NC3(c4ccc(Cl)cc4)CC3)nc(OCC(F)(F)F)n2)cc1 [Compound 3693] | 0.01 to 10 nM
43 | COC(=O)[C@H](CNC(=O)C(=O)Nc1cccc(Oc2ccccc2)c1)NC(=O)c1ccc(Nc2nc(NC3(c4ccc(Cl)cc4)CC3)nc(OCC(F)(F)F)n2)cc1 [Compound 3694] | 0.01 to 10 nM
44 | COC(=O)[C@H](CNC(=O)C(=O)Nc1cccc(-c2ccccc2)c1)NC(=O)c1ccc(Nc2nc(NC3(c4ccc(Cl)cc4)CC3)nc(OCC(F)(F)F)n2)cc1 [Compound 3695] | 0.01 to 10 nM
45 | COC(=O)[C@H](CNC(=O)C(=O)Nc1cccc(-c2cnco2)c1)NC(=O)c1ccc(Nc2nc(NC3(c4ccc(Cl)cc4)CC3)nc(OCC(F)(F)F)n2)cc1 [Compound 3696] | 0.01 to 10 nM
46 | COC(=O)[C@H](CNC(=O)C(=O)Nc1ccc(Oc2ccc(Cl)cc2Cl)nc1)NC(=O)c1ccc(Nc2nc(NC3(c4ccc(Cl)cc4)CC3)nc(OCC(F)(F)F)n2)cc1 [Compound 3697] | 0.01 to 10 nM
47 | COC(=O)[C@H](CNC(=O)C(=O)Nc1ccc(Oc2ccc(C(C)(C)C)cc2)nc1)NC(=O)c1ccc(Nc2nc(NC3(c4ccc(Cl)cc4)CC3)nc(OCC(F)(F)F)n2)cc1 [Compound 3698] | 0.01 to 10 nM
48 | COC(=O)[C@H](CNC(=O)C(=O)Nc1ccc(Oc2cccnc2)nc1)NC(=O)c1ccc(Nc2nc(NC3(c4ccc(Cl)cc4)CC3)nc(OCC(F)(F)F)n2)cc1 [Compound 3699] | 0.01 to 10 nM
49 | COC(=O)[C@H](CNC(=O)C(=O)Nc1cccc(-c2ccnc(C)n2)c1)NC(=O)c1ccc(Nc2nc(NC3(c4ccc(Cl)cc4)CC3)nc(OCC(F)(F)F)n2)cc1 [Compound 3700] | 0.01 to 10 nM
50 | COC(=O)[C@H](CNC(=O)C(=O)Nc1cccc(S(=O)(=O)c2ccccc2)c1)NC(=O)c1ccc(Nc2nc(NC3(c4ccc(Cl)cc4)CC3)nc(OCC(F)(F)F)n2)cc1 [Compound 3701] | 0.01 to 10 nM
51 | COC(=O)[C@H](CNC(=O)C(=O)Nc1cccc(C(C)C)c1)NC(=O)c1ccc(Nc2nc(NC3(c4ccc(Cl)cc4)CC3)nc(OCC(F)(F)F)n2)cc1 [Compound 3702] | 0.01 to 10 nM
52 | COC(=O)[C@H](CNC(=O)C(=O)Nc1ccc(N2CCOCC2)nc1)NC(=O)c1ccc(Nc2nc(NC3(c4ccc(Cl)cc4)CC3)nc(OCC(F)(F)F)n2)cc1 [Compound 3703] | 0.01 to 10 nM
53 | COC(=O)[C@H](CNC(=O)C(=O)Nc1cccc(C(C)(C)C)c1)NC(=O)c1ccc(Nc2nc(NC3(c4ccc(Cl)cc4)CC3)nc(OCC(F)(F)F)n2)cc1 [Compound 3704] | 0.01 to 10 nM
54 | COC(=O)[C@H](CNC(=O)C(=O)Nc1ccc(N)nc1)NC(=O)c1ccc(Nc2nc(NC3(c4ccc(Cl)cc4)CC3)nc(OCC(F)(F)F)n2)cc1 [Compound 3705] | 0.01 to 10 nM
55 | COC(=O)[C@H](CNC(=O)C(=O)Nc1ccc(NC(C)=O)nc1)NC(=O)c1ccc(Nc2nc(NC3(c4ccc(Cl)cc4)CC3)nc(OCC(F)(F)F)n2)cc1 [Compound 3706] | 0.01 to 10 nM
